{
  "source": "patent US20090110701A1",
  "about": "“T-CELL MODULATION” (THE UNIVERSITY COURT OF THE UNIVERSITY OF ABERDEEN, priority 2004, published 2009)",
  "molecules": {"B1": {"name": "RhD autoantigen: AIHA-associated autoantigen RhD protein (protein, UniProt Q02161 2-417, looked up)", "Blood group Rh(D) polypeptide": "SSKYPRSVRRCLPLWALTLEAALILLFYFFTHYDASLEDQKGLVASYQVGQDLTVMAAIGLGFLTSSFRRHSWSSVAFNLFMLALGVQWAILLDGFLSQFPSGKVVITLFSIRLATMSALSVLISVDAVLGKVNLAQLVVMVLVEVTALGNLRMVISNIFNTDYHMNMMHIYVFAAYFGLSVAWCLPKPLPEGTEDKDQTATIPSLSAMLGALFLWMFWPSFNSALLRSPIERKNAVFNTYYAVAVSVVTAISGSSLAHPQGKISKTYVHSAVLAGGVAVGTSCHLIPSPWLAMVLGLVAGLISVGGAKYLPGCCNRVLGIPHSSIMGYNFSLLGLLGEIIYIVLLVLDTVGAGNGMIGFQVLLSIGELSLAIVIALMSGLLTGLLLNLKIWKAPHEAKYFDDQVFWKFPHLAVGF"}},
  "type_in_all_cases": "cell-based, human",
  "key": {"[1]": {"test_system": "Lymphocytes from patients with autoimmune haemolytic anaemia", "assay": "Peptide mapping assay for sCTLA-4 production (RhD peptides)", "details": "1 million lymphocytes per peptide, five days at 37° C., seven AIHA patients, FIG. 9", "method": "Peptide mapping experiments to identify peptides which stimulate sCTLA-4 production were performed as follows. Each peptide (1 to 42) was derived from the RhD autoantigen. Lymphocytes (1 million per peptide) from patients with autoimmune haemolytic anaemia were added to individual peptides and incubated for five days at 37° C. At the end of this period the cell cultures were assessed for an increase in sCTLA-4 production. In these assays a stimulation index of 2 is considered a positive result (twice as much sCTLA-4 detected compared with non-stimulated control).\nCertain peptides in some cases stimulated sCTLA-4 production by three, four or even ten times higher than non-stimulated cells alone."}, "PBMC [2]": {"test_system": "PBMC", "assay": "Proliferation assay (3H thymidine incorporation) of PBMC", "details": "FIG. 5a", "method": "Proliferation Assay. Cell proliferation was assessed by the incorporation of ^3H thymidine, as previously described."}, "PBMC [3]": {"test_system": "PBMC", "assay": "sCTLA-4 secretion ELISA, PBMC from healthy adult donors"}, "PBMC [4]": {"test_system": "PBMC", "assay": "Cytokine secretion ELISA (IFN-γ, IL-10, IL-4) of PBMC cultures", "details": "FIG. 5a", "method": "(§1) Cytokine Secretion ELISA. ELISA were based on previously published methods and were performed from 3-7 days of in vitro cell culture. The following antibody pairs were used: purified mouse anti-IFN-γ (clone NIB42) and biotinylated mouse anti-IFN-γ (clone 4S.B3); purified mouse anti-IL-10 (clone JES3-19F1) and biotinylated mouse anti-IL-10 (clone JES3-12G8); purified mouse anti-IL-4 (clone 8D4-8) and biotinylated mouse anti-IL-4 (clone MP4-25D2) (all from BD Biosciences, Oxford, UK). All recombinant human cytokines (IFN-γ, IL-4, and IL-10) were purchased from Peprotech EC Ltd. (London, UK)."}, "[5]": {"test_system": "PBMC from patients with AIHA", "assay": "sCTLA-4 and IL-4 secretion by PBMC from AIHA patients incubated with RhD", "details": "one patient from an initial sample of six, FIG. 3", "method": "FIG. 3. Differential stimulation of sCTLA-4 secretion by PBMC sampled from AIHA patients in response to incubation with RhD protein antigen.\nas §1\nWe also developed a similar secretion ELISA for sCTLA-4 with antibodies identified previously. Briefly, sCTLA-4 was measured in vitro by incubating a capture anti-CTLA-4 antibody (clone: BNI3 2μg ml^−1) in 96 well Nunc Maxisorp plates for 2 hours at 37° C. Plates were washed and blocked with 3% BSA before the addition of test cell culture suspension. […] Developed plates were measured with a Multiskan MS microplate photometer (Life and Laboratory Sciences, Basingstoke, UK) at an absorbance of 405 nm. […]"}},
  "data": [
    {"molecule": "SSKYPRSVRRCLPLW [Peptide 1, peptide derived from the RhD autoantigen, residues 2-16]", "values": [
      {"measurement": "stimulation of sCTLA-4 production (stimulation index versus non-stimulated control; 2 is positive)", "setting": "[1]", "value": "particularly effective"}
    ]},
    {"molecule": "anti-CD3 antibody: Stimulatory anti-CD3 antibody (clone OKT3) purified from hybridoma cell culture supernatants", "values": [
      {"measurement": "Proliferation, PPD versus anti-CD3 cultures", "setting": "PBMC [2]", "value": "similar"},
      {"measurement": "sCTLA-4 levels compared with non-stimulated PBMC, all individuals analyzed", "setting": "PBMC [3]; 12 healthy individuals, FIG. 5b, P<0.01 Wilcoxon for PPD, anti-CD3 data not shown", "value": "invariably reduced"},
      {"measurement": "sCTLA-4 levels in vitro compared with non-stimulated PBMC", "setting": "PBMC [3]; individual donor profile, FIG. 5a, 5 days, 37° C., stimulus 5 μg ml−1", "value": "dramatically reduced"},
      {"measurement": "IFN-γ secretion, PPD versus anti-CD3 cultures", "setting": "PBMC [4]", "value": "similar"},
      {"measurement": "IL-10 secretion, anti-CD3 compared with PPD", "setting": "PBMC [4]", "value": "increase"}
    ]},
    {"molecule": "B1", "values": [
      {"measurement": "IL-4 secretion compared with negative controls", "setting": "[5]", "value": "higher levels"},
      {"measurement": "sCTLA-4 secretion compared with negative controls", "setting": "[5]", "value": "higher levels"}
    ]}
  ]
}
